Laboratory results: patent US6706663B2, “Herbicidal 3-heterocyclic substituted benzisothiazole and benzisoxazole compounds” (Wyeth, priority 2000, dated 2004)

How the values were obtained:
[1] = system: ABUTH (Abutilon theophrasti); experiment: Postemergence herbicidal evaluation; type: in vivo, Medic.
Method in brief: (§1)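 Seedlings grown for about two weeks were sprayed postemergence and then kept under standard greenhouse care. Injury was rated visually 4–5 weeks after treatment on a 0–9 scale against untreated controls, and ratings from repeat tests were averaged.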

[2] = system: ORYSAT (Rice, Tebonnet); experiment: Preemergence herbicidal evaluation; type: in vivo, Oryza sativa, (L.) Tebonnet; settings: rated 4-5 weeks after treatment
[3] = system: GALAP (Galium aparine); experiment: Preemergence herbicidal evaluation; type: in vivo; settings: rated 4-5 weeks after treatment
Method in brief: (§2)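 Test compound is applied in aqueous acetone to cups just after seeding. Cups are watered and maintained on greenhouse benches. Each cup is scored 0–9 by eye relative to a control after four to five weeks.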

[4] = system: CYPSE (Cyperus serotinus); experiment: Flooded paddy, preemergence weed control; type: in vivo, Rottb.; settings: rate 0.1250 kg/ha, rated 3-4 weeks after treatment, 0-9 rating scale
Method in brief: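 Herbicidal effect was scored visually on a 0–9 scale against an untreated control 3–4 weeks after treatment. Compounds were applied preemergence as 50/50 v/v aqueous/acetone mixtures into flood water (1.5–3 cm deep over silt loam), at roughly 0.0080 to 0.1250 kg/ha active ingredient.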

[5] = system: IPOHE (Ipomoea hederacea); experiment: Preemergence herbicidal evaluation; type: in vivo, (L.) Jacq.; settings: rated 4-5 weeks after treatment
[6] = system: ZEAMX (Corn, Field); experiment: Postemergence herbicidal evaluation; type: in vivo, Zea mays, L.
Method in brief: as §1

[7] = system: GALAP (Galium aparine); experiment: Postemergence herbicidal evaluation; type: in vivo
Method in brief: as §1

[8] = system: SAGPY (Sagittaria pygmaea); experiment: Flooded paddy, preemergence weed control; type: in vivo, L.; settings: rated 3-4 weeks after treatment, 0-9 rating scale
Method in brief: (§3)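 Ratings of 0-9 reflect visual comparison with a control for stand, vigor, deformity, size, chlorosis and overall look. Propagules were placed in shallow silt loam (top 0.5 cm) under a continuous 1.5–3 cm flood and grown in the greenhouse.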

[9] = system: TRZAWR (Wheat, Winter, cv Riband); experiment: Preemergence herbicidal evaluation; type: in vivo, Triticum aestivum; settings: rated 4-5 weeks after treatment
Method in brief: as §2

[10] = system: ECHORC (Echinochloa oryzoides); experiment: Flooded paddy, preemergence weed control; type: in vivo, Echinochloa oryzoides (Ard.) Fritsch.; settings: rated 3-4 weeks after treatment, 0-9 rating scale
Method in brief: as §3

[11] = system: CHEAL (Chenopodium album); experiment: Preemergence herbicidal evaluation; type: in vivo, L.; settings: rated 4-5 weeks after treatment
Method in brief: as §2

[12] = system: AMBEL (Ambrosia artemisifolia); experiment: Preemergence herbicidal evaluation; type: in vivo, L.; settings: rated 4-5 weeks after treatment
Method in brief: as §2

[13] = system: CASOB (Cassia obtusifolia); experiment: Preemergence herbicidal evaluation; type: in vivo, L.; settings: rated 4-5 weeks after treatment
Method in brief: as §2

[14] = system: ZEAMX (Corn, Field); experiment: Preemergence herbicidal evaluation; type: in vivo, Zea mays, L.; settings: rated 4-5 weeks after treatment
[15] = system: GLXMAW (Soybean, Williams); experiment: Preemergence herbicidal evaluation; type: in vivo, Glycine max, (L.) Merr. cv Williams; settings: rated 4-5 weeks after treatment
[16] = system: GLXMAW (Soybean, Williams); experiment: Postemergence herbicidal evaluation; type: in vivo, Glycine max, (L.) Merr. cv Williams
Method in brief: as §1

[17] = system: ECHCG (Echinochloa crus-galli); experiment: Postemergence herbicidal evaluation; type: in vivo, (L.) Beau
Method in brief: as §1

[18] = system: IPOHE (Ipomoea hederacea); experiment: Postemergence herbicidal evaluation; type: in vivo, (L.) Jacq.
Method in brief: as §1

[19] = system: CHEAL (Chenopodium album); experiment: Postemergence herbicidal evaluation; type: in vivo, L.
Method in brief: as §1

[20] = system: AMBEL (Ambrosia artemisifolia); experiment: Postemergence herbicidal evaluation; type: in vivo, L.
Method in brief: as §1

[21] = system: CASOB (Cassia obtusifolia); experiment: Postemergence herbicidal evaluation; type: in vivo, L.
Method in brief: as §1

[22] = system: CYPIR (Cyperus iria); experiment: Flooded paddy, preemergence weed control; type: in vivo; settings: rated 3-4 weeks after treatment, 0-9 rating scale
Method in brief: as §3

Cc1cccnc1-c1nsc2cc(F)c(N3C(=O)C4=C(CCCC4)C3=O)cc12 [Compound 46, N-[6-fluoro-3-(3-methyl-2-pyridyl)-1,2-benzisothiazol-5-yl]-1-cyclohexene-1,2-dicarboximide]
Postemergence herbicidal rating, ABUTH ([1]; rate 0.0320 kg/ha): 9.0 | Postemergence herbicidal rating, ABUTH ([1]; rate 0.0620 kg/ha): 9.0 | Postemergence herbicidal rating, ABUTH ([1]; rate 0.1250 kg/ha): 9.0 | Preemergence herbicidal rating ORYSAT ([2]; Rate 0.0620 kg/ha): 1.0 | Preemergence herbicidal rating ORYSAT ([2]; Rate 0.1250 kg/ha): 0.0 | Preemergence herbicidal rating ORYSAT ([2]; Rate 0.2500 kg/ha): 4.0 | Preemergence herbicidal rating GALAP ([3]; Rate 0.1250 kg/ha): 0.0 | Preemergence herbicidal rating GALAP ([3]; Rate 0.2500 kg/ha): 0.0 | herbicidal rating, CYPSE [4]: 0.0 | Preemergence herbicidal rating IPOHE ([5]; Rate 0.0620 kg/ha): 0.0 | Preemergence herbicidal rating IPOHE ([5]; Rate 0.1250 kg/ha): 2.0 | Preemergence herbicidal rating IPOHE ([5]; Rate 0.2500 kg/ha): 9.0 | Postemergence herbicidal rating, ZEAMX ([6]; rate 0.0320 kg/ha): 4.5 | Postemergence herbicidal rating, ZEAMX ([6]; rate 0.0620 kg/ha): 4.5 | Postemergence herbicidal rating, ZEAMX ([6]; rate 0.1250 kg/ha): 5.5 | Postemergence herbicidal rating, GALAP ([7]; rate 0.0320 kg/ha): 4.0 | Postemergence herbicidal rating, GALAP ([7]; rate 0.0620 kg/ha): 6.0 | Postemergence herbicidal rating, GALAP ([7]; rate 0.1250 kg/ha): 5.0 | herbicidal rating, SAGPY ([8]; rate 0.0320 kg/ha): 0.0 | herbicidal rating, SAGPY ([8]; rate 0.1250 kg/ha): 2.0 | Preemergence herbicidal rating TRZAWR ([9]; Rate 0.0620 kg/ha): 1.0 | Preemergence herbicidal rating TRZAWR ([9]; Rate 0.1250 kg/ha): 0.0 | Preemergence herbicidal rating TRZAWR ([9]; Rate 0.2500 kg/ha): 2.0 | herbicidal rating, ECHORC ([10]; rate 0.0320 kg/ha): 5.0 | herbicidal rating, ECHORC ([10]; rate 0.1250 kg/ha): 7.0 | Preemergence herbicidal rating CHEAL ([11]; Rate 0.0620 kg/ha): 7.0 | Preemergence herbicidal rating CHEAL ([11]; Rate 0.1250 kg/ha): 9.0 | Preemergence herbicidal rating CHEAL ([11]; Rate 0.2500 kg/ha): 9.0 | Preemergence herbicidal rating AMBEL ([12]; Rate 0.0620 kg/ha): 1.0 | Preemergence herbicidal rating AMBEL ([12]; Rate 0.1250 kg/ha): 6.0 | Preemergence herbicidal rating AMBEL ([12]; Rate 0.2500 kg/ha): 9.0 | Preemergence herbicidal rating CASOB ([13]; Rate 0.0620 kg/ha): 1.0 | Preemergence herbicidal rating CASOB ([13]; Rate 0.1250 kg/ha): 1.0 | Preemergence herbicidal rating CASOB ([13]; Rate 0.2500 kg/ha): 3.0 | Preemergence herbicidal rating ZEAMX ([14]; Rate 0.0620 kg/ha): 0.0 | Preemergence herbicidal rating ZEAMX ([14]; Rate 0.1250 kg/ha): 0.0 | Preemergence herbicidal rating ZEAMX ([14]; Rate 0.2500 kg/ha): 0.0 | Preemergence herbicidal rating GLXMAW ([15]; Rate 0.0620 kg/ha): 0.0 | Preemergence herbicidal rating GLXMAW ([15]; Rate 0.1250 kg/ha): 1.0 | Preemergence herbicidal rating GLXMAW ([15]; Rate 0.2500 kg/ha): 2.0 | Postemergence herbicidal rating, GLXMAW ([16]; rate 0.0320 kg/ha): 6.0 | Postemergence herbicidal rating, GLXMAW ([16]; rate 0.0620 kg/ha): 7.5 | Postemergence herbicidal rating, GLXMAW ([16]; rate 0.1250 kg/ha): 7.5 | Postemergence herbicidal rating, ECHCG ([17]; rate 0.0320 kg/ha): 2.0 | Postemergence herbicidal rating, ECHCG ([17]; rate 0.0620 kg/ha): 2.0 | Postemergence herbicidal rating, ECHCG ([17]; rate 0.1250 kg/ha): 4.0 | Postemergence herbicidal rating, IPOHE ([18]; rate 0.0320 kg/ha): 9.0 | Postemergence herbicidal rating, IPOHE ([18]; rate 0.0620 kg/ha): 9.0 | Postemergence herbicidal rating, IPOHE ([18]; rate 0.1250 kg/ha): 9.0 | Postemergence herbicidal rating, CHEAL ([19]; rate 0.0320 kg/ha): 6.0 | Postemergence herbicidal rating, CHEAL ([19]; rate 0.0620 kg/ha): 9.0 | Postemergence herbicidal rating, CHEAL ([19]; rate 0.1250 kg/ha): 9.0 | Postemergence herbicidal rating, AMBEL ([20]; rate 0.0320 kg/ha): 7.0 | Postemergence herbicidal rating, AMBEL ([20]; rate 0.0620 kg/ha): 9.0 | Postemergence herbicidal rating, AMBEL ([20]; rate 0.1250 kg/ha): 9.0 | Postemergence herbicidal rating, CASOB ([21]; rate 0.0320 kg/ha): 7.0 | Postemergence herbicidal rating, CASOB ([21]; rate 0.0620 kg/ha): 9.0 | Postemergence herbicidal rating, CASOB ([21]; rate 0.1250 kg/ha): 9.0 | herbicidal rating, CYPIR ([22]; rate 0.0320 kg/ha): 1.0 | herbicidal rating, CYPIR ([22]; rate 0.1250 kg/ha): 3.0
